Earlier results as cited in patent publication US20200222353A1, “Ketone ester and ketone salt compositions and methods for using the same” (priority 2019, published 2020).

What was measured:
[1] = in vivo
[2] = compared with D-BHB

| Structure (SMILES) | crossing of the blood-brain barrier (BBB) [1] | breakdown in the body and use for energy [2] |
| --- | --- | --- |
| C[C@@H](O)CC(=O)O [D-BHB, (3R)-3-hydroxybutanoic acid] | cross the blood-brain barrier | – |
| C[C@H](O)CC(=O)O [L-BHB, (3 S)-3-hydroxybutanoic acid] | – | not to be broken down in the body and used for energy as quickly as D-BHB |
